Data from patent US7923561B2 (Hoffmann-La Roche Inc., priority 2006, dated 2011).

What follows are compounds tested against T1, recombinant human 5-HT5A receptor (Homo sapiens, UniProt P47898) (assay: [3H]LSD radioligand binding assay, membranes of HEK-EBNA cells transiently expressing 5-HT5A receptors). Conditions: [3H]LSD approx. 1 nM, SPA beads, 120 min at room temperature; Ki from IC50 by Cheng-Prussoff equation.
T1 construct: expressed in transfected cells; host or cells: HEK-EBNA (Human Embryonic Kidney-EBNA) cells, transient cDNA expression, membranes
T1 sequence (P47898 whole entry): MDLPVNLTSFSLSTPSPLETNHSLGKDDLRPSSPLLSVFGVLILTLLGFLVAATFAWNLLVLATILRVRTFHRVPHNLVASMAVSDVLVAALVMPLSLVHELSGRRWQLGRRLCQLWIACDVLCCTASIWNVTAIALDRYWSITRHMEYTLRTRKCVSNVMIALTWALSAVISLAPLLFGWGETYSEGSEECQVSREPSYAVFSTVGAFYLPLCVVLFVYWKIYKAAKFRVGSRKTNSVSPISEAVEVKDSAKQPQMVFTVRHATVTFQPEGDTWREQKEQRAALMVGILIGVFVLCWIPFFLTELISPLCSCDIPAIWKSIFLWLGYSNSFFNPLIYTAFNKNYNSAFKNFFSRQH
Procedure: A [^3H]LSD radioligand binding assay was used to determine the affinity of the compounds for the recombinant human 5-HT5A receptor, in membranes from transiently (cDNA) expressed 5-HT5A receptors in Human Embryonic Kidney-EBNA (HEK-EBNA) cells. Assay buffer consisted of Tris (50 mM) buffer containing 1 mM EGTA, 10 mM MgCl2 (pH 7.4) and 10 μM pargyline. The binding assay was carried out in 96-well-plates in the presence of [^3H]LSD (approximately 1 nM), approximately 2 μg/well of membrane protein, and 0.5 mg of Ysi-poly-1-lysine SPA beads in a final volume of 200 μl of buffer. Non-specific binding was defined using methiothepin 2 μM. Compounds were tested at 10 concentrations. All assays were conducted in duplicate and repeated at least two times. Assay plates were incubated for 120 min at room temperature before centrifugation. Bound ligand was determined using a Packard Topcount scintillation counter. IC50 values were calculated using a non-linear curve fitting program and Ki values calculated using the Cheng-Prussoff equation.

SMILES	Ki [nM]
COc1ccc2c(c1)C(Nc1ccc3c(NS(=O)(=O)c4cc(F)c(F)c(F)c4)cccc3n1)CC2 (single isomer, unassigned; (+)) [Example 20, (+)-3,4,5-Trifluoro-N-[2-(6-methoxy-indan-1-ylamino)-quinolin-5-yl]-benzenesulfonamide]	18.1
c1cncc(CNc2cccc3nc(NC4COc5ccccc54)ccc23)c1 (single isomer, unassigned; (+)) [Example 27, (+)-N2-2,3-Dihydro-benzofuran-3-yl-N5-pyridin-3-ylmethyl-quinoline-2,5-diamine]	25.8
COc1ccc2c(c1)C(Nc1ccc3c(NCc4cccc(S(C)(=O)=O)c4)cccc3n1)CC2 (single isomer, unassigned; (+)) [Example 30, (+)-N5-(3-Methanesulfonyl-benzyl)-N2-(6-methoxy-indan-1-yl)-quinoline-2,5-diamine]	19
Fc1cc(F)cc(CNc2cccc3nc(NC4COc5ccccc54)ccc23)c1 (single isomer, unassigned; (+)) [Example 32, (+)-N5-(3,5-Difluoro-benzyl)-2,3-dihydro-benzofuran-3-yl-quinoline-2,5-diamine]	12.7
COc1ccc2c(c1)C(Nc1ccc3c(NS(=O)(=O)c4ccc(F)cc4)cccc3n1)CC2 (single isomer, unassigned; (+)) [Example 33, (+)-4-Fluoro-N-[2-(6-methoxy-indan-1-ylamino)-quinolin-5-yl]-benzenesulfonamide]	12
COc1ccc2c(c1)C(Nc1ccc3c(NCc4cc(F)cc(F)c4)cccc3n1)CC2 (single isomer, unassigned; (+)) [Example 35, (+)-N5-(3,5-Difluoro-benzyl)-N2-(6-methoxy-indan-1-yl)-quinoline-2,5-diamine]	7.81
COc1ccc2c(c1)C(Nc1ccc3c(NCc4cccnc4)cccc3n1)CC2 (single isomer, unassigned; (+)) [Example 37, (+)-N2-(6-Methoxy-indan-1-yl)-N5-pyridin-3-ylmethyl-quinoline-2,5-diamine]	17.8
O=S(=O)(Nc1cccc2nc(NC3COc4ccccc43)ccc12)c1cc(F)cc(F)c1 (single isomer, unassigned; (+)) [Example 41, (+)-N-{2-[(2,3-Dihydro-benzofuran-3-yl)amino]-quinolin-5-yl}-3,5-difluoro-benzenesulfonamide]	22.9
O=S(=O)(Nc1cccc2nc(N[C@@H]3CCc4ccccc43)ccc12)c1ccc(F)cc1 [Example 1, 4-Fluoro-N-[2-((R)-indan-1-ylamino)-quinolin-5-yl]-benzenesulfonamide]	3.76
c1cncc(COc2cccc3nc(N[C@@H]4CCc5ccccc54)ccc23)c1 [Example 4, (R)-Indan-1-yl-[5-(pyridin-3-ylmethoxy)-quinolin-2-yl]-amine]	37.3
O=S(=O)(Nc1cccc2nc(N[C@@H]3CCc4ccccc43)ccc12)c1ccc(Cl)s1 [Example 5, 5-Chloro-thiophene-2-sulfonic acid [2-((R)-indan-1-ylamino)-quinolin-5-yl]-amide]	3.62
Fc1cc(F)cc(CNc2cccc3nc(N[C@@H]4CCc5ccccc54)ccc23)c1 [Example 6, N5-(3,5-Difluoro-benzyl)-N2-(R)-indan-1-yl-quinoline-2,5-diamine]	1.85
Clc1ccc(Nc2cccc3nc(N[C@@H]4CCc5ccccc54)ccc23)cc1 [Example 7, N5-(4-Chloro-phenyl)-N2-(R)-indan-1-yl-quinoline-2,5-diamine]	2.84
CN(c1cccc2nc(N[C@@H]3CCc4ccccc43)ccc12)S(=O)(=O)c1ccc(F)cc1 [Example 8, 4-Fluoro-N-[2-((R)-indan-1-ylamino)-quinolin-5-yl]-N-methyl-benzenesulfonamide]	13.5
Fc1ccc(Oc2cccc3nc(N[C@@H]4CCc5ccccc54)ccc23)cc1 [Example 9, [5-(4-Fluoro-phenoxy)-quinolin-2-yl]-(R)-indan-1-yl-amine]	90.9
O=S(=O)(Nc1cccc2nc(N[C@@H]3CCc4ccccc43)ccc12)c1cc(F)cc(F)c1 [Example 11, 3,5-Difluoro-N-[2-((R)-indan-1-ylamino)-quinolin-5-yl]-benzenesulfonamide]	5.86
c1cncc(CNc2cccc3nc(N[C@@H]4CCc5ccccc54)ccc23)c1 [Example 12, N2-(R)-Indan-1-yl-N5-pyridin-3-ylmethyl-quinoline-2,5-diamine]	5.13
O=S(=O)(Nc1cccc2nc(N[C@@H]3CCc4ccccc43)ccc12)c1cc(F)c(F)c(F)c1 [Example 16, 3,4,5-Trifluoro-N-[2-((R)-indan-1-ylamino)-quinolin-5-yl]-benzenesulfonamide]	11.1
COc1cccc2c1C(Nc1ccc3c(NS(=O)(=O)c4cc(F)cc(F)c4)cccc3n1)CC2 (stereo not shown) [Example 39, 3,5-Difluoro-N-[2-(7-methoxy-indan-1-ylamino)-quinolin-5-yl]-benzenesulfonamide]	4.57
c1ccc2c(c1)CC[C@H]2Nc1ccc2c(NCc3cnc[nH]3)cccc2n1 [Example 43, N5-(3H-Imidazol-4-ylmethyl)-N2-(R)-indan-1-yl-quinoline-2,5-diamine]	6.45

SMILES	Ki [nM]
O=C(Nc1cccc2nc(N[C@@H]3CCc4ccccc43)ccc12)c1cc(F)cc(F)c1 [Example 45, 3,5-Difluoro-N-[2-((R)-indan-1-ylamino)-quinolin-5-yl]-benzamide]	97.7
c1ccc2c(c1)CC[C@H]2Nc1ccc2c(NCc3ncc[nH]3)cccc2n1 [Example 49, N5-(1H-Imidazol-2-ylmethyl)-N2-(R)-indan-1-yl-quinoline-2,5-diamine]	22.5
c1ccc2c(c1)CC[C@H]2Nc1ccc2c(NCc3cc[nH]n3)cccc2n1 [Example 50, N2-(R)-Indan-1-yl-N5-(1H-pyrazol-3-ylmethyl)-quinoline-2,5-diamine]	13.6
Cc1nc(CNc2cccc3nc(N[C@@H]4CCc5ccccc54)ccc23)c[nH]1 [Example 53]	7.57
Cn1cc(CNc2cccc3nc(N[C@@H]4CCc5ccccc54)ccc23)cn1 [Example 55, N2-(R)-Indan-1-yl-N5-(1-methyl-1H-pyrazol-4-ylmethyl)-quinoline-2,5-diamine]	25.6
c1ccc2c(c1)CC[C@H]2Nc1ccc2c(NCc3cccc4[nH]ccc34)cccc2n1 [Example 56, N2-(R)-Indan-1-yl-N5-(1H-indol-4-ylmethyl)-quinoline-2,5-diamine]	1.65
COc1cccc2c1C(Nc1ccc3c(NCc4c[nH]cn4)cccc3n1)CC2 (stereo not shown) [Example 58, N5-(1H-Imidazol-4-ylmethyl)-N2-(7-methoxy-indan-1-yl)-quinoline-2,5-diamine]	2.36
c1ccc(-c2cccc3nc(N[C@@H]4CCc5ccccc54)ccc23)cc1 [Example 63, (R)-Indan-1-yl-(5-phenyl-quinolin-2-yl)-amine]	229
CN(C)CCOc1ccccc1CNc1cccc2nc(N[C@@H]3CCc4ccccc43)ccc12 [Example 64, N5-[2-(2-Dimethylamino-ethoxy)-benzyl]-N2-(R)-indan-1-yl-quinoline-2,5-diamine]	6.03
Cc1ccccc1-c1cccc2nc(N[C@@H]3CCc4ccccc43)ccc12 [Example 65, (R)-Indan-1-yl-(5-o-tolyl-quinolin-2-yl)-amine]	173
c1cncc(-c2cccc3nc(N[C@@H]4CCc5ccccc54)ccc23)c1 [Example 66, (R)-Indan-1-yl-(5-pyridin-3-yl-quinolin-2-yl)-amine]	320
c1ccc2c(c1)CC[C@H]2Nc1ccc2c(Nc3cccc4cc[nH]c34)cccc2n1 [Example 69, N2-(R)-Indan-1-yl-N5-(1H-indol-7-yl)-quinoline-2,5-diamine]	5.61
c1ccc2c(c1)CC[C@H]2Nc1ccc2c(Nc3cccc4[nH]ccc34)cccc2n1 [Example 71, N2-(R)-Indan-1-yl-N5-(1H-indol-4-yl)-quinoline-2,5-diamine]	2.94
c1ccc2c(c1)CC[C@H]2Nc1ccc2c(Nc3ccc4[nH]ccc4c3)cccc2n1 [Example 72, N2-(R)-Indan-1-yl-N5-(1H-indol-5-yl)-quinoline-2,5-diamine]	6
c1ccc2c(c1)CC[C@H]2Nc1ccc2c(Nc3ccc4cc[nH]c4c3)cccc2n1 [Example 73, N2-(R)-Indan-1-yl-N5-(1H-indol-6-yl)-quinoline-2,5-diamine]	4.7
c1ccc2c(c1)CC[C@H]2Nc1ccc2c(-c3cccc4[nH]ccc34)cccc2n1 [Example 74, (R)-Indan-1-yl-[5-(1H-indol-4-yl)-quinolin-2-yl]-amine]	41.7
Clc1ccccc1-c1cccc2nc(N[C@@H]3CCc4ccccc43)ccc12 [Example 75, [5-(2-Chloro-phenyl)-quinolin-2-yl]-(R)-indan-1-yl-amine]	127
Cc1cc(Nc2cccc3nc(N[C@@H]4CCc5ccccc54)ccc23)n(C)n1 [Example 76, N5-(2,5-Dimethyl-2H-pyrazol-3-yl)-N2-(R)-indan-1-yl-quinoline-2,5-diamine]	33
Fc1ccc(Nc2cccc3nc(N[C@@H]4CCc5ccccc54)ccc23)cc1 [Example 77, N5-(4-Fluoro-phenyl)-N2-(R)-indan-1-yl-quinoline-2,5-diamine]	6.38
O=C(Nc1cccc2nc(N[C@@H]3CCc4ccccc43)ccc12)c1ccc(F)cc1 [Example 78, 4-Fluoro-N-[2-((R)-indan-1-ylamino)-quinolin-5-yl]-benzamide]	91.6
